Assay results: patent US11591351B2, “Benzyl compound” (priority 2015, dated 2023)
≈ marks a conversion by molar mass, not a printed value.

Details: 25° C.; for solubility enhanced versus unprotected H-Gly-Gly-Gly-OH: CPME, relative to H-Gly-Gly-Gly-OH

| SMILES | solubility in cyclopentyl methyl ether (CPME) [mM] | solubility enhanced versus unprotected H-Gly-Gly-Gly-OH |
| --- | --- | --- |
| CC(C)[Si](OCCCCCCCCCCCOc1ccc(COC(=O)CNC(=O)CNC(=O)CN)c(OCCCCCCCCCCCO[Si](C(C)C)(C(C)C)C(C)C)c1)(C(C)C)C(C)C [H-Gly-Gly-Gly-O-TIPS2] | 181 (≈ 175 mg/mL) | about 5,000 fold |
| CC(C)[Si](OCC(CO[Si](C(C)C)(C(C)C)C(C)C)(CO[Si](C(C)C)(C(C)C)C(C)C)NC(=O)CCCCCCCCCCOc1ccc(COC(=O)CNC(=O)CNC(=O)CN)c(OCCCCCCCCCCC(=O)NC(CO[Si](C(C)C)(C(C)C)C(C)C)(CO[Si](C(C)C)(C(C)C)C(C)C)CO[Si](C(C)C)(C(C)C)C(C)C)c1)(C(C)C)C(C)C [H-Gly-Gly-Gly-O-TIPS6] | 286 (≈ 522 mg/mL) | about 9,000 fold |
